Measured values as given in publication PMC3355094 (PLoS Pathogens, 2012).
Where “and” joins values, the source holds several entries; their conditions need not be identical. Equal values may be shown once.

Test system: CCL2
Experiment: Glycan array analysis of CCL2 (CFG mammalian glycan array V3.1)
Format: binding, Coprinopsis cinerea
Details: Alexa Fluor 488 labeled CCL2 200 µg/ml, array V3.1, average of triplicates
Experimental: (§1) Purified CCL1 and CCL2 were fluorescently labeled with Alexa Fluor 488 (Invitrogen) according to the manufacturer's protocol and used (at a final concentration of 200 µg/ml) to probe versions 4.2 and 3.1, respectively, of the mammalian glycan array offered by Core H of the Consortium for Functional Glycomics (CFG).

Row | Compound | RFU (relative fluorescence units)
1 | [3OSO3]Gal1-4(6OSO3)Glc–Sp8 | 1039.1 RFU
2 | [3OSO3]Gal1-3(Fuc1-4)GlcNAc–Sp8 | 628.7 RFU
3 | [3OSO3]Gal1-4(6OSO3)Glc–Sp0 | 151.3 RFU
4 | [6OSO3]GlcNAc–Sp8 | 141.7 RFU
5 | [6OSO3]Gal1-4Glc–Sp0 | 307.4 RFU
6 | [6OSO3]Gal1-4Glc–Sp8 | 269.4 RFU
7 | 9NAcNeu5Ac2-6Gal1-4GlcNAc-Sp8 | 239.4 RFU
8 | Gal1-3GlcNAc1-2Man1-3(Gal1-3GlcNAc1-2Man1-6)Man1-4GlcNAc1-4GlcNAc-Sp19 | 453.7 RFU
9 | -GalNAc–Sp8 | 151.8 RFU and 273.6 RFU
10 | -Neu5Ac-Sp8 | 122.4 RFU
11 | NCCCO[C@H]1O[C@H](CO)[C@@H](O)[C@H](O)[C@@H]1O [-D-Man–Sp8] | 152.9 RFU and 130.5 RFU
12 | Neu5Ac2-8Neu5Ac-Sp17 | 155.0 RFU
13 | C[C@@H]1O[C@@H](OCCCN)[C@@H](O)[C@H](O)[C@@H]1O [-L-Fuc–Sp8] | 416.6 RFU
14 | [3OSO3]Gal1-4GlcNAc–Sp0 | 115.6 RFU
15 | -Neu5Ac–Sp11 | 119.3 RFU
16 | NeuAc2-3[6OSO3]Gal1-4GlcNAc–Sp8 | 40316.6 RFU
17 | -GlcNAc–Sp8 | 160.7 RFU
18 | CC(=O)N[C@H]1[C@H](OCCN)O[C@H](CO)[C@@H](O)[C@@H]1O [-GlcNAc–Sp0] | 172.7 RFU
19 | 9NAcNeu5Ac-Sp8 | 8595.4 RFU
20 | [6OSO3]Gal1-4GlcNAc–Sp8 | 133.9 RFU
21 | -Neu5Ac–Sp8 | 247.4 RFU
22 | Neu5Gc2-6Gal1-4GlcNAc-Sp8 | 182.6 RFU
23 | [3OSO3]Gal–Sp8 | 75.5 RFU
24 | C[C@@H]1O[C@@H](OCCCN)[C@H](O)[C@H](O)[C@H]1O [-L-Rha-Sp8] | 112.5 RFU
25 | (Gal1-4GlcNAc)2-3,6-GalNAc-Sp8 | 397.4 RFU
26 | [3OSO3]Gal1-3GlcNAc–Sp8 | 403.9 RFU
27 | Gal1-4GlcNAc1-2Man1-3(Gal1-4GlcNAc1-2Man1-6)Man1-4GlcNAc1- | 575.8 RFU
28 | -L-Fuc–Sp9 | 136.8 RFU
29 | [3OSO3]Gal1-4(Fuc1-3)GlcNAc–Sp8 | 265.1 RFU

Same assay, conditions: fluorescently labeled CCL2 200 µg/ml, array V3.1

Row | Compound | binding on glycan array (in words)
30 | CC(=O)N[C@H]1C(O)O[C@H](CO)[C@@H](O)[C@@H]1O[C@@H]1O[C@@H](C)[C@@H](O)[C@@H](O)[C@@H]1O (stereo partly shown) [Fucα1,3GlcNAc] | very low fluorescence

Test system: CCL1
Experiment: Glycan array analysis of CCL1 (CFG mammalian glycan array V4.2)
Format: binding, Coprinopsis cinerea
Details: Alexa Fluor 488 labeled CCL1 200 µg/ml, array V4.2, average of triplicates
Experimental: as §1

Row | Compound | RFU (relative fluorescence units)
31 | [6OSO3]Gal1-4Glc-Sp8 | 9 RFU
32 | Gal1-3(Fuc1-2)Gal1-4(Fuc1-3)GlcNAc-Sp0 | 46 RFU
33 | NCCCO[C@@H]1O[C@H](CO)[C@@H](O)[C@H](O)[C@H]1NC(=O)CO [GlcN(Gc)-Sp8] | 32 RFU
34 | Fuc1-2Gal1-4(Fuc1-3)GlcNAc-Sp8 | 29 RFU
35 | GalNAc1-3(Fuc1-2)Gal1-4(Fuc1-3)GlcNAc-Sp0 | 75 RFU
36 | Fuc1-4GlcNAc-Sp8 | 62 RFU
37 | Fuc1-2Gal1-3GalNAc1-3Gal1-4Gal1-4Glc-Sp9 | 76 RFU
38 | [3OSO3]Gal1-4(Fuc1-3)GlcNAc-Sp0 | 383 RFU
39 | [6OSO3]GlcNAc-Sp8 | 14 RFU
40 | Gal1-3(Fuc1-2)Gal1-4(Fuc1-3)GlcNAc-Sp8 | 35 RFU
41 | GalNAc1-3(Fuc1-2)Gal-Sp8 | 7 RFU and 8 RFU
42 | Fuc1-2Gal1-3GlcNAc-Sp8 | 18 RFU
43 | Fuc1-2Gal1-3GalNAc1-4(Neu5Ac2-3)Gal1-4Glc-Sp0 | 5 RFU
44 | GlcNAc-Sp8 | 4 RFU
45 | CC(=O)N[C@H]1[C@H](OCCN)O[C@H](CO)[C@@H](O)[C@@H]1O [GlcNAc-Sp0] | 6 RFU
46 | Fuc1-2Gal1-3GlcNAc1-3Gal1-4Glc-Sp8 | 1 RFU
47 | [9NAc]Neu5Ac-Sp8 | 27 RFU
48 | [3OSO3]Gal1-4GlcNAc-Sp0 | 141 RFU
49 | GalNAc1-3(Fuc1-2)Gal1-3GlcNAc-Sp0 | 100 RFU
50 | Fuc1-2Gal1-3GalNAc-Sp8 | 70 RFU
51 | Fuc1-2Gal1-4(Fuc1-3)GlcNAc1-3Gal1-4(Fuc1-3)GlcNAc-Sp0 | 54 RFU
52 | GalNAc-Sp15 | 148 RFU
53 | Gal-Sp8 | 99 RFU and 68 RFU
54 | [3OSO3]Gal1-3GlcNAc-Sp8 | 173 RFU
55 | [6OSO3]Gal1-4GlcNAc-Sp8 | 27 RFU
56 | Fuc1-2Gal1-3GlcNAc1-3Gal1-4Glc-Sp10 | 20 RFU
57 | Neu5Ac-Sp11 | 247 RFU

Row | Compound | RFU (relative fluorescence units)
58 | Neu5Ac2-3[6OSO3]Gal1-4GlcNAc-Sp8 | 3479 RFU
59 | Fuc1-2Gal1-4GlcNAc-Sp8 | 45 RFU
60 | GalNAc1-3Gal1-4Gal1-4GlcNAc-Sp0 | 18 RFU
61 | Fuc1-2Gal1-3GalNAc1-3Gal-Sp9 | 129 RFU
62 | Neu5Ac2-6Gal1-4GlcNAc1-2Man1-3(Neu5Ac2-6Gal1-4GlcNAc1-2Man1-6)Man1-4GlcNAc1-4GlcNAc-N(LT)AVL | 78 RFU
63 | [3OSO3]Gal1-4[6OSO3]Glc-Sp0 | 329 RFU
64 | [6OSO3]Gal1-4Glc-Sp0 | 23 RFU
65 | GalNAc1-3Gal-Sp8 | 8 RFU
66 | Fuc1-2Gal1-3(Fuc1-4)GlcNAc-Sp8 | 80 RFU
67 | Fuc1-2Gal1-4Glc-Sp0 | 47 RFU
68 | Man1-3(Man1-6)Man1-4GlcNAc1-4GlcNAc-Sp12 | 84 RFU
69 | [3OSO3]Gal1-4(Fuc1-3)[6OSO3]Glc-Sp0 | 250 RFU
70 | Gal1-3(Fuc1-2)Gal1-4GlcNAc-Sp0 | 41 RFU
71 | C[C@@H]1O[C@@H](OCCCN)[C@@H](O)[C@H](O)[C@@H]1O [Fuc-Sp8] | 26 RFU
72 | Fuc1-2Gal1-3GlcNAc-Sp0 | 3 RFU
73 | [3OSO3]Gal1-3GlcNAc-Sp0 | 93 RFU
74 | [3OSO3]Gal1-4[6OSO3]GlcNAc-Sp0 | 293 RFU
75 | Fuc1-2Gal1-4(Fuc1-3)GlcNAc1-3Gal1-4(Fuc1-3)GlcNAc1-3Gal1-4(Fuc1-3)GlcNAc-Sp0 | 1835 RFU
76 | [3OSO3]Gal1-3(Fuc1-4)GlcNAc-Sp8 | 89 RFU
77 | GalNAc1-3(Fuc1-2)Gal1-4GlcNAc-Sp0 | 82 RFU
78 | [3OSO3]Gal1-4[6OSO3]Glc-Sp8 | 228 RFU
79 | Gal1-4GlcNAc1-2Man1-3(Gal1-4GlcNAc1-2Man1-6)Man1-4GlcNAc1-4GlcNAc-Sp12 | 121 RFU
80 | Fuc1-2Gal1-3GalNAc-Sp14 | 25 RFU
81 | Fuc1-2Gal1-4GlcNAc1-3Gal1-4GlcNAc1-3Gal1-4GlcNAc-Sp0 | 61 RFU
82 | Fuc1-3GlcNAc-Sp8 | 30 RFU and 54 RFU
83 | [3OSO3]Gal1-4(Fuc1-3)GlcNAc-Sp8 | 407 RFU
84 | GalNAc1-4(Fuc1-2)Gal1-4GlcNAc-Sp8 | 13 RFU

Row | Compound | RFU (relative fluorescence units)
85 | GalNAc1-4GlcNAc-Sp0 | -11 RFU
86 | GalNAc1-3(Fuc1-2)Gal-Sp18 | 19 RFU
87 | Neu5Ac-Sp8 | 113 RFU and 98 RFU
88 | Fuc1-2Gal1-4GlcNAc1-3Gal1-4GlcNAc-Sp0 | 15 RFU
89 | GalNAc1-3(Fuc1-2)Gal1-4Glc-Sp0 | 2 RFU
90 | Gal1-3(Fuc1-2)Gal1-3GlcNAc-Sp0 | 61 RFU
91 | Fuc1-2Gal-Sp8 | 12 RFU
92 | Fuc1-2Gal1-3GalNAc1-4(Neu5Ac2-3)Gal1-4Glc-Sp9 | 20 RFU
93 | GalNAc1-4(Fuc1-3)GlcNAc-Sp0 | 7887 RFU
94 | Neu5Ac2-6Gal1-4GlcNAc1-2Man1-3(Neu5Ac2-6Gal1-4GlcNAc1-2Man1-6)Man1-4GlcNAc1-4GlcNAc-Sp13 | 86 RFU
95 | [3OSO3]Gal-Sp8 | 42 RFU
96 | Fuc-Sp9 | -10 RFU
97 | Fuc1-2Gal1-4GlcNAc-Sp0 | 52 RFU
98 | GalNAc1-4GlcNAc-Sp8 | 3 RFU
99 | GlcNAc1-2Man1-3(GlcNAc1-2Man1-6)Man1-4GlcNAc1-4GlcNAc-Sp12 | 90 RFU
100 | Gal1-4GlcNAc1-3(Gal1-4GlcNAc1-6)GalNAc-Sp8 | 24 RFU
101 | Gal1-2Gal-Sp8 | 71 RFU
102 | GlcNAc1-3Gal1-3GalNAc-Sp8 | 11 RFU
103 | Gal1-3(Fuc1-2)Gal1-3GlcNAc-Sp8 | 31 RFU
104 | [3OSO3]Gal1-4(Fuc1-3)Glc-Sp0 | 140 RFU
105 | C[C@@H]1O[C@@H](OCCCN)[C@H](O)[C@H](O)[C@H]1O [Rha-Sp8] | 46 RFU
106 | GalNAc1-3(Fuc1-2)Gal1-4GlcNAc-Sp8 | 25 RFU
107 | [9NAc]Neu5Ac2-6Gal1-4GlcNAc-Sp8 | 6 RFU
108 | GalNAc1-3GalNAc-Sp8 | 7 RFU and 14 RFU
109 | Fuc1-2Gal1-4(Fuc1-3)GlcNAc-Sp0 | 10 RFU
